Measured values reported in patent US6737383B1, “Herbicidal oxadiazolidines” (priority 1999, dated 2004).

Tests used:
cocklebur = assay: Test C postemergence cocklebur; format: in vivo, Xanthium strumarium; details: 0 to 100 scale, 0 no effect, 100 complete control
Method in brief: (§1)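 Visual ratings on a 0 to 100 scale, where 0 means no effect and 100 complete control, were made versus untreated controls roughly 14 to 21 days after postemergence treatment. Test compounds were formulated in a non-phytotoxic solvent mixture containing a surfactant.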

large crabgrass = assay: Test C postemergence large crabgrass; format: in vivo, Digitaria sanguinalis; details: 0 to 100 scale, 0 no effect, 100 complete control
Method: (§2) Compounds evaluated in this test were formulated in a non-phytotoxic solvent mixture which included a surfactant and applied to plants that were grown for various periods of time before treatment (postemergence application). A mixture of sandy loam soil and greenhouse potting mix in a 60:40 ratio was used for the postemergence test.
(§3) Plantings of these crops and weed species were adjusted to produce plants of appropriate size for the postemergence test. All plant species were grown using normal greenhouse practices. Crop and weed species include arrowleaf sida (Sida rhombifolia), barnyardgrass (Echinochloa crus-galli), cocklebur (Xanthium strumarium), common ragweed (Ambrosia elatior), corn (Zea mays), cotton (Gossypium hirsutum), eastern black nightshade (Solanum ptycanthum), fall panicum (Panicum dichotomiflorum), field bindweed (Convolvulus arvensis), giant foxtail (Setaria faberii), hairy beggarticks (Bidens pilosa), ivyleaf morningglory (Ipomoea hederacea), johnsongrass (Sorghum halepense), ladysthumb smartweed (Polygonum persicaria), lambsquarters (Chenopodium album), large crabgrass (Digitaria sanguinalis), purple nutsedge (Cyperus rotundus), redroot pigweed (Amaranthus retroflexus), soybean (Glycine max), surinam grass (Brachiaria decumbens), velvetleaf (Abutilon theophrasti) and wild poinsettia (Euphorbia heterophylla).
(§4) Treated plants and untreated controls were maintained in a greenhouse for approximately 14, to 21 days, after which all treated plants were compared to untreated controls and visually evaluated. Plant response ratings, summarized in Table C, were based upon a 0 to 100 scale where 0 was no effect and 100 was complete control. A dash response (−) means no test result.

corn = assay: Test C postemergence corn; format: in vivo, Zea mays; details: 0 to 100 scale, 0 no effect, 100 complete control
Method in brief: as §1

eastern black nightshade = assay: Test C postemergence eastern black nightshade; format: in vivo, Solanum ptycanthum; details: 0 to 100 scale, 0 no effect, 100 complete control
Method in brief: as §1

hairy beggarticks = assay: Test C postemergence hairy beggarticks; format: in vivo, Bidens pilosa; details: 0 to 100 scale, 0 no effect, 100 complete control
Method: as §2, §3, §4

redroot pigweed = assay: Test C postemergence redroot pigweed; format: in vivo, Amaranthus retroflexus; details: 0 to 100 scale, 0 no effect, 100 complete control
Method: as §2, §3, §4

velvetleaf = assay: Test C postemergence velvetleaf; format: in vivo, Abutilon theophrasti; details: 0 to 100 scale, 0 no effect, 100 complete control
Method in brief: as §1

wild poinsettia = assay: Test C postemergence wild poinsettia; format: in vivo, Euphorbia heterophylla; details: 0 to 100 scale, 0 no effect, 100 complete control
Method in brief: as §1

crabgrass = assay: Test A crabgrass; format: in vivo, Digitaria spp.; details: 0 to 10 scale where 0 is no effect and 10 is complete control
Method: Seeds of barnyardgrass (Echinochloa crus-galli), crabgrass (Digitaria spp.), morningglory (Ipomoea spp.), and velvetleaf (Abutilon theophrasti) were planted into a sandy loam soil and treated preemergence by soil drench with test chemicals formulated in a non-phytotoxic solvent mixture which includes a surfactant At the same time, these crop and weed species were also treated postemergence sprayed to runoff, with test chemicals formulated in the same manner.
Plants ranged in height from two to eighteen cm and were in the one to two leaf stage for the postemergence treatment. Treated plants and untreated controls were maintained in a greenhouse for approximately eleven days, after which all treated plants were compared to untreated controls and visually evaluated for injury. Plant response ratings, summarized in Table A, are based on a 0 to 10 scale where 0 is no effect and 10 is complete control.

Green foxtail [1] = assay: Test D green foxtail; format: in vivo; details: Postemergence, 0 to 100 scale, 0 no injury, 100 complete control
common groundsel = assay: Test D common groundsel; format: in vivo, Senecio vulgaris; details: Postemergence, 0 to 100 scale
common pursiane = assay: Test D common purslane; format: in vivo, Portulaca oleracea; details: Postemergence, 0 to 100 scale
Alexandergrass = assay: Test D Alexandergrass; format: in vivo, Brachiaria plantaginea; details: Postemergence, 0 to 100 scale
goosegrass = assay: Test D goosegrass; format: in vivo, Eleusine indica; details: Postemergence, 0 to 100 scale
Spanishneedles = assay: Test D Spanishneedles; format: in vivo, Bidens bipinnata; details: Postemergence, 0 to 100 scale
bermuda-grass = assay: Test D bermudagrass; format: in vivo, Cynodon dactylon; details: Postemergence, 0 to 100 scale
sandbur = assay: Test D sandbur; format: in vivo, Cenchrus echinatus; details: Postemergence, 0 to 100 scale
Green foxtail [2] = assay: Test D green foxtail; format: in vivo; details: Postemergence, 0 to 100 scale, 0 no injury, 100 complete control; remark: listed apart in the source
Green foxtail [3] = assay: Test D green foxtail; format: in vivo; details: Postemergence, 0 to 100 scale, 0 no injury, 100 complete control; remark: listed apart in the source
[4] = Rate 64 g/ha, 0 no injury, 100 complete control
[5] = Rate 32 g/ha, 0 no injury, 100 complete control
[6] = Rate 125 g/ha, 0 no injury, 100 complete control
[7] = Rate 16 g/ha, 0 no injury, 100 complete control

## C=CCn1c(=O)on(C(=O)N(c2ccccc2)C(C)C)c1=O [Compound 93]
cocklebur; Rate 140 g/ha
  Plant response rating, Cocklebur: 0
cocklebur; Rate 280 g/ha
  Plant response rating, Cocklebur: 35
cocklebur; Rate 560 g/ha
  Plant response rating, Cocklebur: 40
Large crabgrass; Rate 140 g/ha
  Plant response rating, Large crabgrass: 0
Large crabgrass; Rate 280 g/ha
  Plant response rating, Large crabgrass: 30
Large crabgrass; Rate 560 g/ha
  Plant response rating, Large crabgrass: 50
Large crabgrass; Rate 1120 g/ha
  Plant response rating, Large crabgrass: 95
corn; Rate 140 g/ha
  Plant response rating, Corn: 0
corn; Rate 280 g/ha
  Plant response rating, Corn: 0
corn; Rate 560 g/ha
  Plant response rating, Corn: 0
corn; Rate 1120 g/ha
  Plant response rating, Corn: 45
Eastern black nightshade; Rate 140 g/ha
  Plant response rating E. blacknightsh: 10
Eastern black nightshade; Rate 280 g/ha
  Plant response rating E. blacknightsh: 40
Eastern black nightshade; Rate 1120 g/ha
  Plant response rating E. blacknightsh: 85
Hairy beggarticks; Rate 280 g/ha
  Plant response rating H. beggarticks: 0
Hairy beggarticks; Rate 560 g/ha
  Plant response rating H. beggarticks: 5
Hairy beggarticks; Rate 1120 g/ha
  Plant response rating H. beggarticks: 70
Redroot pigweed; Rate 140 g/ha
  Plant response rating, Redroot pigweed: 5
Redroot pigweed; Rate 560 g/ha
  Plant response rating, Redroot pigweed: 10
Redroot pigweed; Rate 1120 g/ha
  Plant response rating, Redroot pigweed: 85
velvetleaf; Rate 140 g/ha
  Plant response rating, Velvetleaf: 0
velvetleaf; Rate 280 g/ha
  Plant response rating, Velvetleaf: 5
velvetleaf; Rate 560 g/ha
  Plant response rating, Velvetleaf: 40
velvetleaf; Rate 1120 g/ha
  Plant response rating, Velvetleaf: 70
Wild poinsettia; Rate 140 g/ha
  Plant response rating Wild poinsettia: 0
Wild poinsettia; Rate 280 g/ha
  Plant response rating Wild poinsettia: 0
Wild poinsettia; Rate 560 g/ha
  Plant response rating Wild poinsettia: 30
Wild poinsettia; Rate 1120 g/ha
  Plant response rating Wild poinsettia: 70

## CC(C)N(C(=O)n1oc(=O)n(C2CCCCC2C(F)(F)F)c1=O)c1ccc(F)cc1 (centres unmarked) [Compound 99]
crabgrass; Postemergence, Rate 1000 g/ha
  Plant response rating, Crabgrass: 7
crabgrass; Pre-emergence, Rate 2000 g/ha
  Plant response rating, Crabgrass: 10

## CC(C)N(C(=O)n1oc(=O)n(Cc2cccs2)c1=O)c1ccccc1 [Compound 103]
cocklebur; Rate 140 g/ha
  Plant response rating, Cocklebur: 0
cocklebur; Rate 280 g/ha
  Plant response rating, Cocklebur: 0
cocklebur; Rate 560 g/ha
  Plant response rating, Cocklebur: 0
cocklebur; Rate 1120 g/ha
  Plant response rating, Cocklebur: 0
Large crabgrass; Rate 140 g/ha
  Plant response rating, Large crabgrass: 0
Large crabgrass; Rate 280 g/ha
  Plant response rating, Large crabgrass: 0
Large crabgrass; Rate 560 g/ha
  Plant response rating, Large crabgrass: 0
Large crabgrass; Rate 1120 g/ha
  Plant response rating, Large crabgrass: 10
corn; Rate 140 g/ha
  Plant response rating, Corn: 0
corn; Rate 280 g/ha
  Plant response rating, Corn: 0
corn; Rate 560 g/ha
  Plant response rating, Corn: 0
corn; Rate 1120 g/ha
  Plant response rating, Corn: 0
Eastern black nightshade; Rate 140 g/ha
  Plant response rating E. blacknightsh: 0
Eastern black nightshade; Rate 280 g/ha
  Plant response rating E. blacknightsh: 0
Eastern black nightshade; Rate 560 g/ha
  Plant response rating E. blacknightsh: 0
Eastern black nightshade; Rate 1120 g/ha
  Plant response rating E. blacknightsh: 0
Hairy beggarticks; Rate 140 g/ha
  Plant response rating H. beggarticks: 0
Hairy beggarticks; Rate 280 g/ha
  Plant response rating H. beggarticks: 0
Hairy beggarticks; Rate 560 g/ha
  Plant response rating H. beggarticks: 0
Hairy beggarticks; Rate 1120 g/ha
  Plant response rating H. beggarticks: 5
Redroot pigweed; Rate 140 g/ha
  Plant response rating, Redroot pigweed: 0
Redroot pigweed; Rate 280 g/ha
  Plant response rating, Redroot pigweed: 60
Redroot pigweed; Rate 560 g/ha
  Plant response rating, Redroot pigweed: 70
Redroot pigweed; Rate 1120 g/ha
  Plant response rating, Redroot pigweed: 85
velvetleaf; Rate 140 g/ha
  Plant response rating, Velvetleaf: 0
velvetleaf; Rate 280 g/ha
  Plant response rating, Velvetleaf: 5
velvetleaf; Rate 560 g/ha
  Plant response rating, Velvetleaf: 10
velvetleaf; Rate 1120 g/ha
  Plant response rating, Velvetleaf: 45
Wild poinsettia; Rate 140 g/ha
  Plant response rating Wild poinsettia: 0
Wild poinsettia; Rate 280 g/ha
  Plant response rating Wild poinsettia: 0
Wild poinsettia; Rate 560 g/ha
  Plant response rating Wild poinsettia: 10
Wild poinsettia; Rate 1120 g/ha
  Plant response rating Wild poinsettia: 60

## CC(C)Cn1c(=O)on(C(=O)N(c2ccc(F)cc2)C(C)C)c1=O [Compound 169]
Green foxtail [1]; Rate 64 g/ha
  Green foxtail plant response rating: 100
Common groundsel; [4]
  Plant response rating, Com. groundsel: 65
Common pursiane; [4]
  Plant response rating, C. purslane: 0
Alexandergrass; [4]
  Plant response rating, Alexandergrass: 65
goosegrass; [4]
  Plant response rating, Goosegrass: 100
Spanishneedles; [4]
  Spanishneedles plant response rating: 0
bermuda-grass; [4]
  Plant response rating, Bermudagrass: 100
sandbur; [4]
  Sandbur plant response rating: 40

## CC(C)N(C(=O)n1oc(=O)n(C2CC2)c1=O)c1ccc(Cl)cc1 [Compound 241]
Green foxtail [1]; Rate 64 g/ha
  Green foxtail plant response rating: 10
Green foxtail [1]; Rate 125 g/ha
  Green foxtail plant response rating: 100
Common groundsel; [5]
  Plant response rating, Com. groundsel: 0
Common groundsel; [4]
  Plant response rating, Com. groundsel: 0
Common groundsel; [6]
  Plant response rating, Com. groundsel: 100
Common groundsel; Rate 250 g/ha
  Plant response rating, Com. groundsel: 100
Common pursiane; [7]
  Plant response rating, C. purslane: 0
Common pursiane; [5]
  Plant response rating, C. purslane: 0
Common pursiane; [4]
  Plant response rating, C. purslane: 0
Common pursiane; [6]
  Plant response rating, C. purslane: 0
Common pursiane; Rate 250 g/ha
  Plant response rating, C. purslane: 0
Alexandergrass; [7]
  Plant response rating, Alexandergrass: 0
Alexandergrass; [5]
  Plant response rating, Alexandergrass: 10
Alexandergrass; [4]
  Plant response rating, Alexandergrass: 10
Alexandergrass; [6]
  Plant response rating, Alexandergrass: 100
Alexandergrass; Rate 250 g/ha
  Plant response rating, Alexandergrass: 100
Green foxtail [2]; Rate 16 g/ha
  Plant response rating, Green foxtail: 0
Green foxtail [2]; Rate 32 g/ha
  Plant response rating, Green foxtail: 10
goosegrass; [7]
  Plant response rating, Goosegrass: 0
goosegrass; [5]
  Plant response rating, Goosegrass: 100
goosegrass; [4]
  Plant response rating, Goosegrass: 100
goosegrass; [6]
  Plant response rating, Goosegrass: 100
goosegrass; Rate 250 g/ha
  Plant response rating, Goosegrass: 100
Green foxtail [3]; Rate 16 g/ha
  Plant response rating, Green foxtail: 0
Green foxtail [3]; Rate 32 g/ha
  Plant response rating, Green foxtail: 10
Spanishneedles; [7]
  Plant response rating, Spanishneedles: 0
Spanishneedles; [5]
  Plant response rating, Spanishneedles: 0
Spanishneedles; [4]
  Spanishneedles plant response rating: 0
Spanishneedles; [6]
  Spanishneedles plant response rating: 0
Spanishneedles; Rate 250 g/ha
  Plant response rating, Spanishneedles: 10
bermuda-grass; [7]
  Plant response rating, Bermudagrass: 0
bermuda-grass; [5]
  Plant response rating, Bermudagrass: 30
bermuda-grass; [4]
  Plant response rating, Bermudagrass: 100
bermuda-grass; [6]
  Plant response rating, Bermudagrass: 100
bermuda-grass; Rate 250 g/ha
  Plant response rating, Bermudagrass: 100
sandbur; [7]
  Plant response rating, Sandbur: 0
sandbur; [5]
  Plant response rating, Sandbur: 40
sandbur; [4]
  Sandbur plant response rating: 20
sandbur; [6]
  Sandbur plant response rating: 100
sandbur; Rate 250 g/ha
  Plant response rating, Sandbur: 90
